Data from paper PMC11855827, “High-Throughput Screening of Five Compound Libraries for Anthelmintic Activity and Toxicity Leads to the Discovery of Two Flavonoid Compounds” (International Journal of Molecular Sciences, 2025).
Like-named read-outs stand apart in the source and are kept apart here.

System: C. elegans
Experiment: microbe, parasite or virus in culture
Conditions: Caenorhabditis elegans
[1] = 24 h, read-out: Percentage of motility inhibition 24 h, Table S2, C. elegans SS assay, 110 μM, 24 h, averages of 4 data points
[2] = 0 h, read-out: Percentage of motility inhibition 0 h, Table S2, C. elegans SS assay, 110 μM, 0 h, averages of 4 data points
[3] = 0 h, read-out: Percentage of motility inhibition 0 h
[4] = 24 h, read-out: Percentage of motility inhibition 24 h

Row | SMILES | inhibition at 110 µM [1] [%] | inhibition at 110 µM [2] [%] | inhibition at 110 µM [3] [%] | inhibition at 110 µM [4] [%]
1 | O=C1CCC[C@@H]2[C@H]3CCCN4CCC[C@@H](CN12)[C@@H]34 [Matrine] | 2 |  |  | 
2 | CCC(=O)O[C@@H]1CC(=O)O[C@H](C)C/C=C/C=C/[C@H](O)[C@H](C)C[C@H](CC=O)[C@H](O[C@@H]2O[C@H](C)[C@@H](O[C@H]3C[C@@](C)(O)[C@@H](OC(=O)CC)[C@H](C)O3)[C@H](N(C)C)[C@H]2O)[C@H]1OC [Midecamycin] | 14 | 16 |  | 
3 | O=c1c(O)c(-c2ccccc2)oc2ccccc12 [Flavonol] | 10 | 2 |  | 
4 | CC(C)=CCC[C@](C)(O)[C@H]1CC[C@]2(C)[C@@H]1[C@H](O)C[C@@H]1[C@@]3(C)CC[C@H](O)C(C)(C)[C@@H]3[C@@H](O[C@@H]3O[C@H](CO)[C@@H](O)[C@H](O)[C@H]3O)C[C@]12C [Ginsenoside Rh1] | 9 | 0 |  | 
5 | C=C1C(=O)O[C@H]2[C@H]1CC/C(C)=C/CC[C@@]1(C)O[C@@H]21 [Parthenolide] | 26 | 6 |  | 
6 | O=C1C[C@@H](c2ccc(O)c(O)c2)Oc2cc(O)cc(O)c21 [Eriodictyol] | 14 | 0 |  | 
7 | C=C1C/C(=C/C)C(=O)O[C@@H]2CCN3CC=C(COC(=O)[C@]1(C)O)[C@H]23 [Seneciphylline] | 1 | 0 |  | 
8 | O=[N+]([O-])c1cn2c(n1)OC[C@@H](OCc1ccc(OC(F)(F)F)cc1)C2 [PA‐824] | 0 | 33 |  | 
9 | Cc1ncc([N+](=O)[O-])n1CC(O)CCl (stereo not shown) [Ornidazole] | 7 | 8 |  | 
10 | CC1=C2C(=O)[C@H]3[C@@H](CC=C4C[C@@H](O)CC[C@@]43C)[C@@H]2CC[C@]12O[C@@H]1C[C@H](C)CN[C@H]1[C@H]2C [Jervine] | 33 | 0 |  | 
11 | CC[C@]12C=CCN3CC[C@]4(C(=C(C(=O)OC)C1)Nc1ccccc14)[C@@H]32 [Tabersonine] | 1 | 0 |  | 
12 | CSCCC(N)C(=O)O (racemic) [DL-Methionine] | 2 | 6 |  | 
13 | COC(=O)c1ccccc1O [Methyl Salicylate] | 12 | 21 |  | 
14 | Clc1ccccc1C(c1ccccc1)(c1ccccc1)n1ccnc1 [Clotrimazole] | 0 | 6 |  | 
15 | O=c1c(O)c(-c2ccc(O)cc2)oc2c(O)c(O)cc(O)c12 [Herbacetin] |  |  | 4 | 13
16 | C[C@@H]1O[C@@H](OC[C@H]2O[C@@H](Oc3cc(O)c4c(=O)cc(-c5ccc(O)cc5)oc4c3)[C@H](O)[C@@H](O)[C@@H]2O)[C@H](O)[C@H](O)[C@H]1O [Isorhoifolin] | 20 | 0 |  | 
17 | COc1ccc(-c2cc(=O)c3c(O)cc(O)c(-c4cc(-c5cc(=O)c6c(O)cc(O)cc6o5)ccc4OC)c3o2)cc1 [Isoginkgetin] | 19 | 17 |  | 
18 | CC[C@@H]1[C@H]2CCCCN3[C@H]2[C@@H](C[C@H]3[C@@H]2C[C@H](C)C(=O)O2)[C@H]2[C@@H]1OC(=O)[C@H]2C [Neotuberostemonine] | 9 | 0 |  | 
19 | N[C@@H](CO)C(=O)O [L-Serine] | 0 | 0 |  | 
20 | CC(C)(O)/C=C/C(=O)[C@](C)(O)[C@H]1[C@H](O)C[C@@]2(C)[C@@H]3CC=C4[C@@H](C[C@H](O)C(=O)C4(C)C)[C@]3(C)C(=O)C[C@]12C [Cucurbitacin D] | 22 | 10 |  | 
21 | COc1c(O)cc(O)c2c(=O)cc(-c3ccccc3)oc12 [Wogonin] |  |  | 23 | 5
22 | O=C(CC1NCCCC1O)Cn1cnc2cc(Br)c(Cl)cc2c1=O (stereo not shown) [Halofuginone] | 11 | 18 |  | 
23 | CCCCCCCCCCOc1cc2c(O)c(C(=O)OCC)cnc2cc1OCC [Decoquinate] | 1 | 13 |  | 
24 | CN1Cc2c(ccc3c2OCO3)[C@@H]2[C@H]1c1cc3c(cc1C[C@@H]2O)OCO3 [Chelidonine] | 0 | 0 |  | 
25 | COc1cc([C@H]2Oc3cc([C@H]4Oc5cc(O)cc(O)c5C(=O)[C@@H]4O)ccc3O[C@@H]2CO)ccc1O [Silybin A] | 20 | 22 |  | 
26 | C[C@H]1CO[C@@H]2Cn3cc(C(=O)NCc4ccc(F)cc4F)c(=O)c(O)c3C(=O)N12 [Cabotegravir] | 7 | 19 |  | 

Row | SMILES | inhibition at 110 µM [1] [%] | inhibition at 110 µM [2] [%] | inhibition at 110 µM [3] [%] | inhibition at 110 µM [4] [%]
27 | C=C(NC(=O)C(=C)NC(=O)c1csc(C2=N[C@@H]3c4csc(n4)[C@H]4NC(=O)c5csc(n5)[C@H]([C@](C)(O)[C@@H](C)O)NC(=O)[C@H]5CSC(=N5)/C(=C/C)NC(=O)[C@H]([C@@H](C)O)NC(=O)c5csc(n5)[C@]3(CC2)NC(=O)[C@H](C)NC(=O)C(=C)NC(=O)[C@H](C)NC(=O)[C@H]([C@@H](C)CC)N[C@@H]2C=Cc3c([C@H](C)O)cc(nc3[C@H]2O)C(=O)O[C@@H]4C)n1)C(N)=O [Thiostrepton] | 31 | 11 |  | 
28 | CC(C)CN(C[C@@H](O)[C@H](Cc1ccccc1)NC(=O)O[C@H]1CCOC1)S(=O)(=O)c1ccc(N)cc1 [Amprenavir] | 34 | 41 |  | 
29 | CC1=C(C(=O)O)N2C(=O)[C@@H](NC(=O)[C@H](N)C3=CCC=CC3)[C@H]2SC1 [Cefradine] | 11 | 37 |  | 
30 | Nc1nc2c(ncn2CCC(CO)CO)c(=O)[nH]1 [Penciclovir] | 1 | 22 |  | 
31 | COc1cnc(NS(=O)(=O)c2ccc(N)cc2)nc1 [Sulfameter] | 8 | 25 |  | 
32 | COc1ccccc1OCC(O)CO (stereo not shown) [Guaifenesin] | 27 | 46 |  | 
33 | C/C=C(\C)C(=O)O[C@H]1[C@H](OC(C)=O)[C@]2(CO)[C@H](O)C[C@]3(C)C(=CC[C@@H]4[C@@]5(C)CC[C@H](O[C@@H]6O[C@H](C(=O)O)[C@@H](O[C@@H]7O[C@H](CO)[C@@H](O)[C@H](O)[C@H]7O)[C@H](O)[C@H]6O[C@@H]6O[C@H](CO)[C@@H](O)[C@H](O)[C@H]6O)[C@](C)(CO)[C@@H]5CC[C@]43C)[C@@H]2CC1(C)C [Escin IA] | 0 | 0 |  | 
34 | CC(C)=CCC[C@](C)(O)[C@H]1CC[C@]2(C)[C@@H]1[C@H](O)C[C@@H]1[C@@]3(C)CC[C@H](O)C(C)(C)[C@@H]3[C@@H](O[C@@H]3O[C@H](CO)[C@@H](O)[C@H](O)[C@H]3O[C@@H]3O[C@@H](C)[C@H](O)[C@@H](O)[C@H]3O)C[C@]12C [Ginsenoside Rg2] | 0 | 8 |  | 
35 | C=C(CC[C@@H](C(=O)O)[C@H]1CC[C@@]2(C)C3=C(CC[C@]12C)[C@@]1(C)CC[C@H](O)C(C)(C)[C@@H]1CC3)C(C)C [Eburicoic acid] | 56 | 27 |  | 
36 | NC[C@H]1O[C@H](O[C@H]2[C@H](O)[C@@H](O[C@H]3O[C@H](CO)[C@@H](O)[C@H](N)[C@H]3O)[C@H](N)C[C@@H]2N)[C@H](N)C[C@@H]1O [Tobramycin] | 0 | 9 |  | 
37 | COc1cccc(N2CCN(C3=Nc4c(F)cccc4[C@H](CC(=O)O)N3c3cc(C(F)(F)F)ccc3OC)CC2)c1 [Letermovir] | 0 | 24 |  | 
38 | O=C(O)CC(O)(CC(=O)O)C(=O)O [Citric acid] | 18 | 0 |  | 
39 | CN(C(=O)CN(CCO)CC(=O)N(C)C(C)(C)Cc1ccccc1)C(C)(C)Cc1ccccc1 [Oxethazaine] | 25 | 44 |  | 
40 | C=C[C@H]1C[N@@]2CC[C@H]1C[C@@H]2[C@@H](O)c1ccnc2ccccc12 [Cinchonine] | 0 | 6 |  | 
41 | CC(=O)OC/C=C(C)/C=C/C=C(C)/C=C/C1=C(C)CCCC1(C)C [Retinyl acetate] | 0 | 0 |  | 
42 | Cc1cn([C@@H]2C[C@@H](O)[C@H](CO)O2)c(=O)[nH]c1=O [Telbivudine] | 1 | 39 |  | 
43 | O=C(O)CCCc1c[nH]c2ccccc12 [Indole‐3‐butyric acid] | 0 | 2 |  | 
44 | O=c1cc(-c2ccccc2)oc2cc(O)ccc12 [7‐Hydroxyflavone] | 0 | 1 |  | 
45 | O=C1Cc2ccccc2N1 [Oxindole] | 7 | 14 |  | 
46 | O=C(O)c1cn(C2CC2)c2cc(N3CCC(O)(COc4ccc(N5C[C@H](CO)OC5=O)cc4F)CC3)c(F)cc2c1=O [Cadazolid] | 31 | 5 |  | 
47 | O=C(/C=C/c1ccccc1)OC[C@H]1O[C@@H](O[C@@H]2OC=C[C@H]3[C@H](O)[C@@H]4O[C@]4(CO)[C@@H]23)[C@H](O)[C@@H](O)[C@@H]1O [Picroside I] | 17 | 6 |  | 
48 | CC1=C(O)C(=O)C=C2C1=CC=C1[C@@]2(C)CC[C@@]2(C)[C@@H]3C[C@](C)(C(=O)O)CC[C@]3(C)CC[C@]12C [Celastrol] | 13 | 0 |  | 
49 | Oc1cc(O)c2c(c1)O[C@H](c1ccc(O)c(O)c1)[C@H](O)[C@H]2c1c(O)cc(O)c2c1O[C@H](c1ccc(O)c(O)c1)[C@H](O)C2 [Procyanidin B2] | 27 | 14 |  | 
50 | CCN1C[C@]2(COC)[C@H](O)C[C@H](OC)[C@]34C1[C@H]([C@H](OC)[C@H]23)[C@@]1(OC(C)=O)C[C@H](OC)[C@@]2(O)C[C@@H]4[C@@H]1[C@H]2OC(=O)c1ccc(OC)cc1 [Yunaconitine] | 5 | 24 |  | 
51 | O=C(O)/C=C/c1ccc(O)c(O)c1 [Caffeic acid] | 13 | 20 |  | 
52 | O=C(O)c1cccc2nc3ccccc3nc12 [Phenazine‐1‐carboxylic acid] | 11 | 0 |  | 
